According to US9072777B2, “Method for screening substance having proangiogenic effect” (priority 2005, dated 2015):
Ends that are not written are not given here.

Experiments:
[1] = tested on: lower extremity ischemia model mouse; test: lower extremity ischemia model mouse (laser Doppler perfusion imaging, wound healing, new vessels); format: in vivo
Protocol: Mouse lower extremity ischemia model was prepared as follows.
C3H mice were anesthetized with nembutal and then skin of one side of lower extremity was cut open to expose artery of lower extremity. The lower extremity ischemia model was prepared by ligating artery of lower extremity at upper groin and lower popliteal region and resecting the artery of lower extremity at this region. The recovery of the blood flow after the resection of the artery of lower extremity by the development of the collateral circulation was observed.
C3H mice at the age of 6 months were divided into three groups; AM administration group, VEGF administration group, and control group. Mice of AM treatment group was continuously injected with AM (50 ng/h) by osmotic pump. Each mouse of VEGF administration group was injected with 20 μl of VEGF (5 ng/h) intramuscularly and used as positive control. Mice of control group were injected with PBS continuously.
The blood flow in the lower extremity ischemia model was monitored using laser Doppler perfusion imaging. The effect of AM on wound healing was also investigated. […] In FIG. 4, almost no blood flow in ischemic lower limb was observed on the first day of ischemic model preparation ([…] day 0).
The increasing of the number of new intramuscular blood vessel at the side of operation was also observed (FIG. 6, panel B). In contrast, in AM heterozygous knockout mice (AM +/−), and the mice administered with “AM 22-52”, a truncated form of AM consisting of from 22 to 52 amino acid sequence (AM antagonist), suppression of the recovery of blood flow and the angiogenesis were observed (FIG. 7). In FIG. 7, the mark “**” denotes p<0.01. Hereinafter the same.

Akt = test: phosphorylation of Akt in HUVEC, Western Blot; format: cell-based, human; conditions: AM 10^-11 to 10^-7 M in combination with VEGF 10 ng/ml
Protocol: (§1) Single administration of AM (10^−11 to 10^−7 M) alone, or administration of AM in combination with VEGF (10 ng/ml) to the cultivating system of human umbilical vein endothelial cell was carried out. Protein was extracted from cells and the phosphorylation of Akt and eNOS was investigated using Western Blot analysis.

eNOS = test: phosphorylation of eNOS in HUVEC, Western Blot; format: cell-based, human; conditions: AM 10^-11 to 10^-7 M in combination with VEGF 10 ng/ml
Protocol: as §1

VEGF [2] = test: expression of VEGF in femoral muscle of lower extremity ischemia model mouse, Western Blot; format: in vivo; conditions: AM administration group vs control
Protocol: The lower extremity ischemia model mouse prepared as in Example 2 was sacrificed by cervical dislocation, then femoral muscle sampled, from which protein was extracted and Western Blot analysis was conducted.

VEGF [3] = test: expression of VEGF in human artery endothelial cell (HAEC), RT-PCR; format: cell-based; conditions: AM concentration and stimulation time dependence
Protocol: Also, the expression of VEGF in human artery endothelial cell (HAEC) was analyzed using RT-PCR.

[4] = tested on: AM heterozygous knockout mice (AM +/-); test: rescue test using AM heterozygous knockout mice (lower extremity ischemia model); format: in vivo, mouse; conditions: for formation of new blood vessel: AM +/- mice supplemented with AM or VEGF; for recovery of blood flow / angiogenesis effect: AM +/- mice supplemented with exogenous AM or VEGF
Protocol: Rescue test using AM knockout mouse may also be carried out. In the lower-extremity ischemia model prepared from the AM knockout mouse with decreased expression level of AM, angiogenesis potency decreases. When AM is administered exogenously to the AM knockout mouse, recovery of angiogenesis potency may be observed. This is referred to as “rescue test”.
In this example, The lower extremity ischemia model mice were prepared as in Example 2, and the recovery of blood flow of the AM heterozygous knockout mice (AM +/−) supplemented with exogenous AM or VEGF.

Flk-1 knockout mice = test: rescue test using Flk-1 knockout mice (lower extremity ischemia model); format: in vivo, mouse
Protocol: On the other hand, supplementation of AM to Flk-1, a receptor of VEGF knockout mice was conducted as a rescue test opposite to that mentioned above. The recovery of blood flow in Flk-1 knockout mice decreased in comparison with wild-type.

[5] = tested on: angiogenesis enhancing factors and adhesion factor gene expression; test: gene array of sample from lower extremity ischemia model mice; format: in vivo, mouse
Source text: In this Example, the gene group of which expression level changes by the administration of AM were monitored by gene array using the sample form the lower extremity ischemia model mice

HUVEC = test: in vitro vascular permeability assay (FITC-dextran through HUVEC monolayer); format: cell-based, human
Protocol: In vitro vascular permeability assay is an assay in which the cells are cultured in the insert placed on the culture plate with semi-permeable membrane at the bottom to form monolayer, then the substance is added to the insert and the extent of permeability into the plate through the cell monolayer is measured. In particular, the extent of permeability is measured by addition of the substance for the vascular permeability test such as AM, followed by the addition of dextran labeled with FITC onto the cell monolayer, allowing it to permeate through the monolayer, and the fluorescence intensity in the plate well solution is measured. Thus, the suppression activity of AM on the vascular permeability may be investigated.
An insert made of semi-permeable membrane was placed on a cultivation plate, in which HUVEC was cultured so that the cells formed monolayer (EBM-2 medium, 5% CO2, 37° C., 24 hours). The extent of permeability was measured by addition of the substance for the vascular permeability test to the plate on which cell were cultured, followed by the addition of dextran labeled with FITC onto the cell monolayer, allowing it to permeate through the monolayer, and the fluorescence intensity in the plate well solution was measured.

[6] = tested on: lower extremity edema model mice; test: lower extremity edema model mice by topical injection of carrageenan; format: in vivo, mouse; conditions: continuous administration of AM; carrageenan to pad of foot
Protocol: Transient edema may be prepared by topical injection of carrageenan, a hyperosmotic substance to pad of foot of mouse. Magnitude of the edema thus formed was evaluated by measuring the thickness of feet pad from time to time.

[7] = tested on: cerebral edema model mice; test: cerebral edema model (cold injury of dura mater); format: in vivo, mouse; conditions: AM administration group vs control
Protocol: Mice were anesthetized with nembutal and then skull was opened. Injury was provided by contacting a cylinder cooled to −80° C. against dura mater. After 24 hours, mice were sacrificed, brain was removed and the increasing in the weight of the brain due to the cerebral edema was quantified. In the similar cerebral edema model, fluorescent-labeled dextran was injected into the tail vein and the leakage of the fluorescence dye out of the vessel in brain was quantified using fluorescent plate reader.

claudin 5 = claudin 5 gene expression in HUVEC cultured on Matrigel, real-time PCR; format: cell-based, human
Protocol: (1) Adrenomedullin was administered exogenously to HUVEC cultured on Matrigel. After stimulating for 24 hours, the cell was recovered and RNA was extracted. The expression of claudin 5 gene was investigated using real-time PCR technique.
(2) “AM 22-52”, a truncated form of AM consisting of from 22 to 52 amino acid sequence was administered to HUVEC cultured on Matrigel to investigate the gene expression level.

[8] = gene array, AM administration group vs control group
[9] = mice administered with AM 22-52

## Adrenomedullin [AM]
[1]; AM 50 ng/h, vs control group
  wound, amputation and shortening of lower limb: Reduction of wound and decreasing in the number of amputation and shortening of lower limb
[1]; AM administration group
  percentage of the mice in which the lower limb is normal or with slight wound: more than 80%
[1]; AM administration group vs control group
  number of mice in which the lower limb was amputated or with severe wound: smaller than that in the control group
[1]; Day 7 and 12 after ischemia, AM 50 ng/h
  blood flow in ischemic lower limb: recovery of blood flow was observed
[1]; administration of AM
  number of new intramuscular blood vessel at the side of operation: increasing
  recovery of the blood flow, ratio ischemic side (L) / non-ischemic side (R) (L/R): significant recovery in the blood flow
[1]; laser Doppler perfusion imaging, AM 50 ng/h continuously by osmotic pump, C3H mice
  recovery of the blood flow of lower extremity: Improvement in the recovery of the blood flow
Akt
  phosphorylation of Akt by VEGF: enhanced
eNOS
  phosphorylation of eNOS by VEGF: enhanced
VEGF [2]
  expression level of VEGF: increased from the early stage after the ischemia operation (day 1)
VEGF [3]
  expression level of VEGF: increased concentration- and time dependently
[4]
  formation of new blood vessel: recovered to the level comparable to the wild-type
  recovery of blood flow / angiogenesis effect: recovery of the angiogenesis effect
Flk-1 knockout mice; exogenous AM to Flk-1 knockout mice
  recovery of blood flow: no recovery of blood flow
Flk-1 knockout mice; exogenous AM to wild-type mice
  recovery of blood flow: enhance the recovery of blood flow
[5]; administration of AM in comparison with control group
  expression levels of eNOS, Osteopontin, VEGF, VCAM-1 and the like: increased
[5]; [8]
  COL18A1 expression, AM(+)/Control: 2.72
  Osteopontin expression, AM(+)/Control: 1.93
  PAI-1 expression, AM(+)/Control: 1.79
  PDGF-A expression, AM(+)/Control: 5.60
  PDGFRβ expression, AM(+)/Control: 1.58
  TGFβ expression, AM(+)/Control: 4.04
  Tie-2 expression, AM(+)/Control: 3.61
  VCAM-1 expression, AM(+)/Control: 3.65
  VEGF expression, AM(+)/Control: 1.50
  eNOS expression, AM(+)/Control: 1.71
  β-glycan expression, AM(+)/Control: 6.76
HUVEC; AM in addition to VEGF
  vascular permeability (FITC-dextran through cell monolayer): suppressed the enhancement of vascular permeability by VEGF
HUVEC; substance alone
  vascular permeability (FITC-dextran through cell monolayer): suppression of vascular permeability
[6]
  formation of edema at lower limb (thickness of feet pad): suppressed
[7]
  vascular permeability in brain (leakage of fluorescent-labeled dextran): suppressed in comparison with control
[7]; 24 hours after injury
  weight of brain: decreased
Claudin 5
  expression of claudin 5: enhanced

## vascular endothelial growth factor [VEGF]
[4]
  formation of new blood vessel: recovered to the level comparable to the wild-type
  recovery of blood flow / angiogenesis effect: recovery of the angiogenesis effect
HUVEC; substance alone
  vascular permeability (FITC-dextran through cell monolayer): enhanced vascular permeability

## AM 22-52: a truncated form of AM consisting of from 22 to 52 amino acid sequence (AM antagonist) (TVQKLAHQIYQFTDKDKDNVAPRSKISPQGY; ends and bridges not checked; UniProt P35318 116-146, looked up, fragment) [reference compound]
[1]; [9]
  angiogenesis: suppression
  recovery of blood flow: suppression
Claudin 5
  expression of claudin 5: decreased
